Laboratory results taken from the NIST ThermoML archive (doi:10.1021/acs.jced.7b00650).
± gives the expanded uncertainty stated by the source.

Conditions: Liquid; for viscosity: Capillary tube (Ostwald / Ubbelohde) method; for mass density: Vibrating tube method

CCCCC [pentane]
Conditions	mass density [kg/m3]	viscosity [mPa·s]
293.21 K, 2000 kPa	628.05 ± 0.84	0.232 ± 0.0029
293.21 K, 3998 kPa	630.31 ± 0.85	0.2382 ± 0.0029
293.21 K, 6000 kPa	632.63 ± 0.86	0.2439 ± 0.003
293.21 K, 8003 kPa	634.89 ± 0.87	0.2495 ± 0.0031
293.21 K, 13008 kPa	640.02 ± 0.9	0.2637 ± 0.0032
293.21 K, 30000 kPa	655.38 ± 1	0.31 ± 0.0037
293.22 K, 10008 kPa	636.91 ± 0.88	0.2551 ± 0.0031
293.22 K, 16007 kPa	643 ± 0.92	0.2719 ± 0.0033
293.22 K, 19009 kPa	645.81 ± 0.94	0.2806 ± 0.0034
293.22 K, 22010 kPa	648.59 ± 0.96	0.2885 ± 0.0035
293.22 K, 25002 kPa	651.19 ± 0.98	0.2967 ± 0.0036
293.22 K, 28002 kPa	653.72 ± 1	0.3046 ± 0.0036
313.1 K, 2005 kPa	608.49 ± 0.82	0.1968 ± 0.0025
313.1 K, 6001 kPa	613.99 ± 0.84	0.2075 ± 0.0026
313.1 K, 7999 kPa	616.58 ± 0.85	0.2126 ± 0.0027
313.1 K, 10005 kPa	619.09 ± 0.87	0.218 ± 0.0027
313.1 K, 13001 kPa	622.65 ± 0.89	0.2259 ± 0.0028
313.1 K, 16005 kPa	626.03 ± 0.91	0.2334 ± 0.0029
313.1 K, 19002 kPa	629.28 ± 0.93	0.2409 ± 0.003
313.1 K, 22002 kPa	632.38 ± 0.95	0.2485 ± 0.0031
313.1 K, 25004 kPa	635.4 ± 0.97	0.2558 ± 0.0031
313.1 K, 28002 kPa	638.2 ± 0.99	0.2628 ± 0.0032
313.1 K, 30005 kPa	640.09 ± 1	0.2676 ± 0.0033
313.11 K, 4002 kPa	611.31 ± 0.83	0.2023 ± 0.0026
333.01 K, 2009 kPa	587.87 ± 0.8	0.1679 ± 0.0022
333.01 K, 3997 kPa	591.4 ± 0.81	0.1737 ± 0.0023
333.01 K, 6002 kPa	594.59 ± 0.82	0.1787 ± 0.0023
333.01 K, 8008 kPa	597.69 ± 0.84	0.1837 ± 0.0024
333.01 K, 10001 kPa	600.61 ± 0.85	0.1888 ± 0.0024
333.01 K, 12998 kPa	604.82 ± 0.87	0.1958 ± 0.0025
333.01 K, 15996 kPa	608.78 ± 0.89	0.2029 ± 0.0026
333.01 K, 19000 kPa	612.5 ± 0.91	0.21 ± 0.0026
333.01 K, 21997 kPa	616.1 ± 0.94	0.217 ± 0.0027
333.01 K, 25000 kPa	619.39 ± 0.96	0.2239 ± 0.0028
333.01 K, 27997 kPa	622.68 ± 0.98	0.2306 ± 0.0029
333.01 K, 30006 kPa	624.71 ± 1	0.2348 ± 0.0029
353.12 K, 2006 kPa	565.77 ± 0.77	0.1452 ± 0.002
353.12 K, 3997 kPa	570.01 ± 0.79	0.1504 ± 0.002
353.12 K, 6002 kPa	574.02 ± 0.8	0.1557 ± 0.0021
353.12 K, 8003 kPa	577.79 ± 0.82	0.1606 ± 0.0021
353.12 K, 10008 kPa	581.28 ± 0.83	0.1654 ± 0.0022
353.12 K, 13000 kPa	586.31 ± 0.85	0.1724 ± 0.0023
353.12 K, 16001 kPa	590.9 ± 0.88	0.1792 ± 0.0023
353.12 K, 18997 kPa	595.21 ± 0.9	0.1857 ± 0.0024
353.12 K, 25002 kPa	603.1 ± 0.95	0.1987 ± 0.0025
353.12 K, 28005 kPa	606.77 ± 0.98	0.2047 ± 0.0026
353.12 K, 30001 kPa	609.1 ± 1	0.2087 ± 0.0026
353.13 K, 22000 kPa	599.29 ± 0.93	0.1922 ± 0.0025
